In one series the test system is NMDA receptor. Conditions: cited from earlier work.
The subject of series [1] is hippocampal neurones. The series can be described thus: Effect of five-minute application of 1 μM test article on intracellular calcium levels (calcium imaging, Fura-2-AM). The note with it: for Concentration of intracellular Ca2+ Post-treatment: after five-minute application of 1 μM test article; for Fura-2 350/380 nm ratio, pre-treatment: baseline before five-minute application of 1 μM test article; for %ΔF/F / Concentration of intracellular Ca2+ Response (Post-Pre): five-minute application of 1 μM test article. Type of series: cell-based, Lister-Hooded rat. The protocol:
(§1) Standard primary hippocampal cultures were prepared from Lister-Hooded rat pups (1-3 days old), euthanised by cervical dislocation, in accordance with Home Office and institute regulations. The brain was quickly removed, hippocampi dissected out and placed in ice-cold filtered HEPES buffered solution (HBS, composition in mM: NaCl 130; KCl 5.4; CaCl2 1.8; MgCl2 1.0; HEPES 10; glucose 25). Micro-dissection was performed to remove blood vessels and excess, non-hippocampal, tissue.
(§2) The hippocampal tissue was thinly chopped and placed in 1 mg/ml type X and XIV protease solution (40 minutes). The tissue was then washed in HBS and triturated several times using graded fire-polished glass Pasteur pipettes. Following centrifugation, the supernatant was removed and the remaining tissue pellet re-suspended in tissue culture medium (90% Minimum Essential Medium with 10% foetal bovine serum and 2 mM L-glutamine). The tissue was stored at standard conditions: in a humidified incubator at 37° C. and in 5% CO2, and re-centrifuged.
(§3) Excess medium was removed and the tissue pellet re-suspended in culture medium for plating. A drop of cell suspension was placed on the centre of a 35 mm culture dish, coated with poly-L-lysine and incubated at 37° C. for 1 hour. Following this, a further 2 ml of tissue culture medium was gently added to each dish and the culture kept in a humidified incubator (37° C.; 5% CO2).
(§4) Cultures were allowed to mature for 2 days before replacement of MEM with Neurobasal Medium, supplemented with 2% B27, 2 mM L-glutamine, and 25 μM L-glutamate. Culture dishes were used for imaging at 5-10 days in vitro.
(§5) For calcium imaging experiments, hippocampal cultures were washed with HBS at room temperature and loaded with the cell-permeable fluorescent calcium indicator Fura-2-AM (10 μM) for 1 hour in the dark.
(§6) The sodium channel blocker tetrodotoxin (TTX) was added to all perfusion media, to avoid spontaneous cell firing and transmitter release, ensuring only post-synaptic effects were visualised.
(§7) Cultures were perfused with HBS or low Mg^2+HEPES buffered solution for experiments involving NMDA (composition in mM: NaCl 130; KCl 5.4; CaCl2 1.8; MgCl2 0.1; HEPES 10; glucose 25), at a rate of 1-2 ml/min, using a gravity perfusion system.
(§8) A suitable field of cells was identified under the microscope and a greyscale transmission image visualised and captured using Oracal software. A Xenon lamp, which gave a single wavelength of light, was used to expose the cells to 350 nm and 380 nm, specified by the monochromator.
(§9) The ratio of these wavelengths, which is directly proportional to intracellular calcium levels in the cells, was plotted after background fluorescence subtraction.
(§10) The data that were produced were pooled and means for each experiment determined.
In order to test the regulation of calcium homeostasis in the presence of the test article, the effects were measured in response to a five-minute application of 1 μM sample.
(§11) Fluorescent units were converted into %ΔF/F. F is defined as an average of five baseline values before drug application. The value for %ΔF/F is therefore the percentage change in the […] by the average baseline value before drug application.
All experiments were performed a minimum of three times, each on neurones from a different culture. Only changes in fluorescence >0.1 ratio units were considered as a response. Data were exported to Excel and statistical analysis performed using Prism. Normality tests confirmed absence of normal distribution of data. Therefore, a Mann Whitney U test was utilised for paired comparisons and for multiple group comparisons a Kruskal-Wallis test with either a Dunn's or Mann Whitney post-test used.
The effects of the essentially pure cannabinoids, the cannabinoid-containing plant extracts and the cannabinoid-ratioed comparators were assessed to investigate the responses of the neurones to these different forms of cannabinoid.
Background: A change in cytosolic calcium serves as a functional read-out for many receptors and channels.

In series [2] the test system is hippocampal neurones. The series can be described thus: Acute modulation of NMDA (10 μM) calcium response by five-minute application of 1 μM test article. The format is cell-based, Lister-Hooded rat. The note with it: for Pre-treatment %ΔF/F / Pre-treatment [Ca2+]: initial two-minute NMDA (10 μM) application, before test article; for Response (% change): reduction of NMDA (10 μM) calcium response by 1 μM test article, positive = reduction; for Post-treatment %ΔF/F / Post-treatment [Ca2+]: second two-minute NMDA (10 μM) application after five minutes of 1 μM test article. The protocol: as §1, §2, §3, §4, §5, §6, §7, §8, §9, §10
(§12) A stock of NMDA (10 mM) was made up in double-distilled water and the necessary concentrations made up in HBS. NMDA (with 100 μM glycine) was applied in every experiment to categorically distinguish between neuronal and glial cells in the image obtained.
The acute modulatory effect of calcium homeostasis was assessed by comparing an initial two-minute application of NMDA (10 μM) with a subsequent two-minute application of NMDA (10 μM). The subsequent application of the NMDA followed a five minute application of 1 μM sample.
as §11
(§13) All experiments were performed a minimum of three times, each on neurones from a different culture. Only changes in fluorescence >0.1 ratio units were considered as a response. Data were exported to Excel and statistical analysis performed using Prism. Normality tests confirmed absence of normal distribution of data. […]

Series [3] deals with hippocampal neurones. Put plainly: Intracellular calcium ion concentration after overnight incubation with 1 μM test article. Conditions: for Concentration of intracellular Ca2+ Response (Post-Pre): overnight incubation with 1 μM test article at 37° C., 5% CO2; for Change from control (%): overnight incubation with 1 μM test article, control = naïve culture dishes, minus = reduction. Type of series: cell-based, Lister-Hooded rat. The protocol:
as §1, §2, §3, §4, §5, §6, §7, §8, §9, §10
(§14) To assess the effects of the test articles under more realistic chronic treatment regimes, cells were incubated overnight with 1 μM sample and responses to increasing doses of NMDA assessed (1, 10 & 100 μM).
as §11
All experiments were performed a minimum of three times, each on neurones from a different culture. Only changes in fluorescence >0.1 ratio units were considered as a response. […]

Series [4] concerns hippocampal neurones. The series can be described thus: Response to increasing doses of NMDA after overnight incubation with 1 μM test article. The format is cell-based, Lister-Hooded rat. The protocol:
as §1, §2, §3, §4, §5, §6, §7, §8, §9, §10, §12, §14, §11, §13

Series [5] concerns hippocampal neurones. The series can be described thus: Acute effect on NMDA calcium ion response following overnight incubation with test article. The format is cell-based, Lister-Hooded rat. Conditions: for Response (% change): overnight incubation plus acute 1 μM test article, NMDA 10 μM, positive = reduction, minus = increase; for Post-treatment %ΔF/F / Post-treatment [Ca2+] / Pre-treatment %ΔF/F / Pre-treatment [Ca2+]: overnight incubation with 1 μM test article; for Post-treatment %ΔF/F / Post-treatment [Ca2+]: NMDA 10 μM after 5 minute application of 1 μM same test article; for Pre-treatment %ΔF/F / Pre-treatment [Ca2+]: NMDA 10 μM for 2 minutes, before acute application. The protocol: as §1, §2, §3, §4, §5, §6, §7, §8, §9, §10, §12
In order to assess whether the acute modulatory effects are altered by overnight incubation, the cells were incubated overnight with the 1 μM sample and assessed by comparing an initial two-minute application of NMDA (10 μM) with a subsequent two-minute application of NMDA (10 μM). The subsequent application of the NMDA followed a five minute application of 1 μM test article.
as §11
All experiments were performed a minimum of three times, each on neurones from a different culture. Only changes in fluorescence >0.1 ratio units were considered as a response. Data were exported to Excel and statistical analysis performed using Prism. […]

Series [6] has as its system neuronal cultures exposed to glutamate. The note with it: in vitro, isolated or synthetic cannabinoid; cited from earlier work.
The conditions of series [7]: isolated or synthetic CBD; cited from earlier work.

Molecules are shown by their SMILES.

Regarding `O=C(O)[C@@H]1C[C@H](CP(=O)(O)O)CCN1` (racemic) [Selfotel], the “Mortality rate versus placebo” value in the series on NMDA receptor (stroke patients) was “trends towards a higher mortality rate”.

As to `CN1CC[C@@]23CCCC[C@@H]2[C@@H]1Cc1ccc(O)cc13` [Dextrorphan], the Side effects result with NMDA receptor (human subjects) is “hallucinations, agitation and hypotension”.

With `C=C(C)[C@@H]1CCC(C)=C[C@H]1c1c(O)cc(CCCCC)cc1O` [P-CBD, cannabidiol], in the series with hippocampal neurones [1], the “Concentration of intracellular Ca2+ Post-treatment” value is given as 1.172; the “Fura-2 350/380 nm ratio, pre-treatment” value is 0.805; the “%ΔF/F” value came out at 45.45%; the “Concentration of intracellular Ca2+ Response (Post-Pre)” value (“Concentration … (Post-Pre)” for short) is recorded as 0.367. In addition, in the series on hippocampal neurones [2], the “Pre-treatment %ΔF/F” value was determined as 91.70%, the “Pre-treatment [Ca2+]” value is reported as 0.722, the “Response (% change)” value came out at 58.2% and the “Post-treatment %ΔF/F” value was 32.91%. The “Post-treatment [Ca2+]” value in the series with hippocampal neurones [2] was 0.302. In addition, the “Response (% change)” value with hippocampal neurones [2] (listed as essentially pure CBD) is recorded as “far greater reduction”. Further, in the series on hippocampal neurones [3], the “Concentration … (Post-Pre)” value worked out at 0.893 and the “Change from control (%)” value was determined as 13.2%. In the series on hippocampal neurones [4] (1 μM NMDA), the “%ΔF/F” value was 43.80%, the “Concentration of intracellular Ca2+ Post-treatment” value is recorded as 0.410, the “Concentration of intracellular Ca2+ Pre-treatment” value turned out to be 0.933 and the “Concentration … (Post-Pre)” value is given as −0.523. Besides, in the series with hippocampal neurones [4] (10 μM NMDA), the “%ΔF/F” value is listed as 53.54%, the “Concentration of intracellular Ca2+ Post-treatment” value came to 0.489, the “Concentration of intracellular Ca2+ Pre-treatment” value was 0.913 and the “Concentration … (Post-Pre)” value is given as −0.424. Also, in the series with hippocampal neurones [4] (100 μM NMDA), the “%ΔF/F” value is recorded as 141.57%, the “Concentration of intracellular Ca2+ Post-treatment” value is 1.289, the “Concentration of intracellular Ca2+ Pre-treatment” value stood at 0.910 and the “Concentration … (Post-Pre)” value was 0.379. Moreover, in the series on hippocampal neurones [5], the “Response (% change)” value is −68.6%, the “Post-treatment %ΔF/F” value is listed as 71.97%, the “Post-treatment [Ca2+]” value was 0.715 and the “Pre-treatment %ΔF/F” value was found to be 52.42%. Further, in the series on hippocampal neurones [5], the “Pre-treatment [Ca2+]” value is recorded as 0.424. Besides, the “Response (% change)” value with hippocampal neurones [5] (listed as essentially pure CBD) was “increased the concentration to a large extent”. Moreover, the “Prevention of glutamate toxicity” value in series [6] is reported as “prevented to some extent”. Also, in series [7], the “Difference between treated and placebo treated animals” value is “failed to find a difference”.

In the case of `CCCCCc1cc(O)c2c(c1)OC(C)(C)[C@@H]1CCC(C)=C[C@@H]21` [P-THC, tetrahydrocannabinol], in the series with hippocampal neurones [1], the “Concentration of intracellular Ca2+ Post-treatment” value came out at 0.588; the “Fura-2 350/380 nm ratio, pre-treatment” value turned out to be 0.363; the “%ΔF/F” value is 56.38%; the “Concentration … (Post-Pre)” value is listed as 0.225. Besides, in the series on hippocampal neurones [2], the “Pre-treatment %ΔF/F” value is recorded as 93.69%, the “Pre-treatment [Ca2+]” value stood at 0.741, the “Response (% change)” value is recorded as 19.6% and the “Post-treatment %ΔF/F” value worked out at 63.81%. The “Post-treatment [Ca2+]” value in the series on hippocampal neurones [2] was found to be 0.596. For the same compound, the “Response (% change)” value with hippocampal neurones [2] (listed as essentially pure THC) was “lowest amount of reduction”. In the series with hippocampal neurones [3], the “Concentration … (Post-Pre)” value came to 0.826 and the “Change from control (%)” value came to 6.2%. In addition, the “Change from control (%)” value in the series with hippocampal neurones [3] (listed as essentially pure THC) is given as “increase”. Further, in the series on hippocampal neurones [4] (1 μM NMDA), the “%ΔF/F” value stood at 62.24%, the “Concentration of intracellular Ca2+ Post-treatment” value is listed as 0.522, the “Concentration of intracellular Ca2+ Pre-treatment” value was determined as 0.839 and the “Concentration … (Post-Pre)” value was −0.317. In the series on hippocampal neurones [4] (1 μM NMDA, listed as essentially pure THC), the “Concentration … (Post-Pre)” value is “did not reduce the concentration of calcium ions as much as the others”. Further, in the series on hippocampal neurones [4] (10 μM NMDA), the “%ΔF/F” value is reported as 57.50%, the “Concentration of intracellular Ca2+ Post-treatment” value is recorded as 0.498, the “Concentration of intracellular Ca2+ Pre-treatment” value is given as 0.866 and the “Concentration … (Post-Pre)” value is −0.368. Also, in the series on hippocampal neurones [4] (100 μM NMDA), the “%ΔF/F” value worked out at 200.35%, the “Concentration of intracellular Ca2+ Post-treatment” value came out at 1.897, the “Concentration of intracellular Ca2+ Pre-treatment” value turned out to be 0.947 and the “Concentration … (Post-Pre)” value came to 0.950. For the same compound, in the series with hippocampal neurones [5], the “Response (% change)” value is −28.5%, the “Post-treatment %ΔF/F” value came to 38.93%, the “Post-treatment [Ca2+]” value amounted to 0.487 and the “Pre-treatment %ΔF/F” value is listed as 46.53%. Moreover, the “Pre-treatment [Ca2+]” value in the series with hippocampal neurones [5] was 0.379. In series [6], the “Prevention of glutamate toxicity” value was “prevented to some extent”.
